Experimental data: patent US9023789B2, “Amylin analogs and pharmaceutical compositions thereof” (Novo Nordisk A/S, priority 2012, dated 2015)
pIC50: −log10 of the molar value. Read-outs that look alike come from different tables or passages of the source. Numbered stars: 1 amine (or outer) side, 2 acyl side, 3 side chain; on linkers, the order of the positions; unused ones are H or OH. Bridge positions count the residues as written; N and C are the ends. Side chains are listed from the residue outwards. Peptide text beside a SMILES is read from it. * marks the point of attachment. C20 diacid = O=C(O)CCCCCCCCCCCCCCCCCCC(=O)*; γGlu = O=C(O)[C@H](CCC(=O)[*:2])N[*:1]; AEEA = NCCOCCOCC(=O)O

What was measured:
Sprague Dawley (SD) rats = test: ASSAY (I) efficacy testing on appetite (food intake) using an ad libitum fed rat model; format: in vivo; conditions: rat, 30 nmol/kg
Outline: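 Individual food consumption was logged each hour up to 7 h and again at 24 h, occasionally 48 h, with Grubbs-test outliers removed. Each 200–250 g Sprague Dawley rat, free-feeding in its home cage under reversed lighting, received a single ip, po or sc dose of 0.01–3 mg/kg at lights-off, alongside a vehicle group.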

[1] = ASSAY (IV) determination of solubility; format: physicochemical
Outline: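 Solubility measured by UPLC of supernatant after centrifugation, following 18 h at room temperature. Peptide ([…] in water) was diluted 1:1 into 100 mM glycylglycine (pH 3.0, 4.0, 5.0) or bistrispropane (pH 6.0-8.0).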

[2] = molecular target: T1, human amylin receptor (membranes from Amylin 3(a)/CRE-luc cells) (Homo sapiens, UniProt O60896+P30988); test: ASSAY (V) binding to the human amylin receptor (SPA, 125I-rat amylin);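 further: competition binding of cell membranes (35 ng/µL) mixed with SPA beads in 384-well plates at 40 µL total volume, read by scintillation counting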
T1 construct: expressed in transfected cells
T1 sequence (P30988 25-474): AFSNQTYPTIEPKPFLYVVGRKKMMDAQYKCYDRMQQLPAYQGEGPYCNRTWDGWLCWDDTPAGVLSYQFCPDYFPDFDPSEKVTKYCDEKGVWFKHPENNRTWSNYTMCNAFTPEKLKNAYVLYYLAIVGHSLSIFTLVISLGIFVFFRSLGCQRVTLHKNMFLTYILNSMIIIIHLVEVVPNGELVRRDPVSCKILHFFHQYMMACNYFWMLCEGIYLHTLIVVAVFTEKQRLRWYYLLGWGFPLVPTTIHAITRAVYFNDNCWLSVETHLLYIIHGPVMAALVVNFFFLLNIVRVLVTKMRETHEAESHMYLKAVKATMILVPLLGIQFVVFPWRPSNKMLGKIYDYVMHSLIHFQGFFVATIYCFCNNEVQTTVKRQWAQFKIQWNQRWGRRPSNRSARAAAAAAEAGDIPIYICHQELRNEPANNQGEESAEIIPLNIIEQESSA
T1 sequence (O60896 24-148 partner): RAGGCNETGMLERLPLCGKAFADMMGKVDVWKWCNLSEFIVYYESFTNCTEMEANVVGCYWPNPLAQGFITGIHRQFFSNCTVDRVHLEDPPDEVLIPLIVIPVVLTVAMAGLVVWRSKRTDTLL

[3] = molecular target: T2, rat amylin receptor (rat calcitonin receptor + rat RAMP 3) (Rattus norvegicus, UniProt P32214+Q9JJ73); test: ASSAY (VI) binding to the rat amylin receptor; conditions: for pIC50: binding to rat amylin receptor, read-out: rAmylin-R bind IC50
T2 construct: expressed in transfected cells; host or cells: BHK tk'ts 13 (transient, FuGENE 6), membranes
T2 sequence (P32214 25-479 isoform P32214-2 limits assumed): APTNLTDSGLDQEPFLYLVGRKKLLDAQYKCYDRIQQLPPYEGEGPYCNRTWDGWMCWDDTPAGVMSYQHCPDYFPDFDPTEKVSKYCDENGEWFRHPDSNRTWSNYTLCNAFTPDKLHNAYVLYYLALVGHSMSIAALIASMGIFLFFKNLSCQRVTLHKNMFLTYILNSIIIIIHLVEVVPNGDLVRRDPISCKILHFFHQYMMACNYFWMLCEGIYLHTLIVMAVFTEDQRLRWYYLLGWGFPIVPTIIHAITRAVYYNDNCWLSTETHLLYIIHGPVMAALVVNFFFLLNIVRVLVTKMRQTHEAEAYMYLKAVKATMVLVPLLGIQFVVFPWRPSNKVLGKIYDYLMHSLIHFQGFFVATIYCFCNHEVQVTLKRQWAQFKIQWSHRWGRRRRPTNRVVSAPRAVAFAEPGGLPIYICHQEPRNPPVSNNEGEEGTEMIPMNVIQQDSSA
T2 sequence (Q9JJ73 23-147 partner): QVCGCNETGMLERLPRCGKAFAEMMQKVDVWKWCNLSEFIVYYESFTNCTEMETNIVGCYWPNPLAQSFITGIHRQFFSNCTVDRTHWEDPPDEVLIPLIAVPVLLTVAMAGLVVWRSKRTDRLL
Outline: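 The cell-membrane assay assessed binding at the rat amylin receptor. BHK tk′ts 13 cells were transfected transiently with rat calcitonin receptor, with FuGENE® 6 (Roche) as the transfection reagent, used per the manufacturer's recommendations. Approximately 48 hours after transfection the cells were harvested, and membranes were prepared for measuring binding.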

rat calcitonin receptor = molecular target: T3, rat calcitonin receptor (Rattus norvegicus, UniProt P32214); test: ASSAY (VIII) binding to the rat calcitonin receptor; conditions: Table 7, read-out: rCTR bind IC50
T3 construct: expressed in transfected cells; host or cells: BHK tk'ts 13 (transient, FuGENE 6), membranes
T3 sequence (P32214 25-479 isoform P32214-2 limits assumed): T2 sequence (P32214 25-479 isoform P32214-2 limits assumed)
Outline: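 BHK tk′ts 13 cells, transient rat calcitonin receptor transfection; DMEM + 10% FBS; harvest ~48 h post-transfection; membrane prep.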

[4] = bistrispropane buffer, pH 6.5, read-out: Solubility pH 6.5 Concentration
[5] = bistrispropane buffer, pH 7.5, read-out: Solubility pH 7.5 Concentration
[6] = bistrispropane buffer, pH 6.0, read-out: Solubility pH 6.0 Concentration
[7] = bistrispropane buffer, pH 7.0, read-out: Solubility pH 7.0 Concentration
[8] = bistrispropane buffer, pH 8.0, read-out: Solubility pH 8.0 Concentration
[9] = glycylglycine buffer, pH 3.0, read-out: Solubility pH 3.0 Concentration
[10] = glycylglycine buffer, pH 4.0, read-out: Solubility pH 4.0 Concentration
[11] = glycylglycine buffer, pH 5.0, read-out: Solubility pH 5.0 Concentration
[12] = Table 5, selectivity, hCTR bind IC50 / hAmylin-R bind IC50
[13] = Table 5a, selectivity, hCTR bind IC50 / hAmylin-R bind IC50
[14] = Table 5b, selectivity, hCTR bind IC50 / hAmylin-R bind IC50
[15] = Table 5c, selectivity, hCTR bind IC50 / hAmylin-R bind IC50
[16] = Table 7, human binding selectivity, included for comparison
[17] = Table 7a (preferred compounds), human binding selectivity, included for comparison
[18] = ratio of human calcitonin receptor binding IC50 to human amylin receptor binding IC50
[19] = Table 7, rat binding selectivity, rCTR IC50 / rAmylin-R IC50
[20] = Table 7a (preferred compounds), rat binding selectivity, rCTR IC50 / rAmylin-R IC50
[21] = ratio of rCTR bind IC50 to rAmylin-R bind IC50

Row | Compound | Food intake reduction 0-24 h 30 nmol/kg (%) (Sprague Dawley (SD) rats) | Food intake reduction 24-48 h 30 nmol/kg (%) (Sprague Dawley (SD) rats) | solubility at 18 h [1, 4] [µM] | solubility at 18 h [1, 5] [µM] | solubility at 18 h [1, 6] [µM] | solubility at 18 h [1, 7] [µM] | solubility at 18 h [1, 8] [µM] | solubility at 18 h [1, 9] [µM] | solubility at 18 h [1, 10] [µM] | solubility at 18 h [1, 11] [µM] | Ratio hCT/hAmylin binding [2, 12] | Ratio hCT/hAmylin binding [2, 13] | Ratio hCT/hAmylin binding [2, 14] | Ratio hCT/hAmylin binding [2, 15] | Ratio hCT/hAmylin binding [2, 16] | Ratio hCT/hAmylin binding [2, 17] | Ratio hCT/hAmylin binding [2, 18] | pIC50 ([3]; Table 7) | Ratio rCT/rAmylin binding [3, 19] | Ratio rCT/rAmylin binding [3, 20] | other results
1 | CC[C@H](C)[C@H](NC(=O)[C@H](C)NC(=O)CNC(=O)[C@H](Cc1ccccc1)NC(=O)[C@H](CC(N)=O)NC(=O)[C@@H]1CCCN1C(=O)[C@H](CO)NC(=O)[C@H](CO)NC(=O)[C@H](Cc1c[nH]cn1)NC(=O)[C@H](CCCNC(=N)N)NC(=O)[C@H](CC(C)C)NC(=O)[C@H](Cc1ccccc1)NC(=O)[C@H](CCC(=O)O)NC(=O)[C@H](C)NC(=O)[C@H](CC(C)C)NC(=O)[C@H](CCCNC(=N)N)NC(=O)[C@H](CCC(N)=O)NC(=O)[C@@H](NC(=O)[C@H](C)NC(=O)[C@@H]1CSSC[C@H](NC(=O)[C@@H](N)CCCCNC(=O)CC[C@H](NC(=O)CC[C@H](NC(=O)CCCCCCCCCCCCCCCCCCC(=O)O)C(=O)O)C(=O)O)C(=O)N[C@@H](CC(N)=O)C(=O)N[C@@H]([C@@H](C)O)C(=O)N[C@@H](C)C(=O)N[C@@H]([C@@H](C)O)C(=O)N1)[C@@H](C)O)C(=O)N1CCC[C@H]1C(=O)N[C@@H](CO)C(=O)N[C@@H](CO)C(=O)N[C@H](C(=O)N[C@@H](CC(N)=O)C(=O)N[C@H](C(=O)NCC(=O)N[C@@H](Cc1c[nH]cn1)C(=O)N[C@@H](CCC(=O)O)C(=O)N[C@H](C(=O)N[C@@H](Cc1ccc(O)cc1)C(N)=O)[C@@H](C)O)C(C)C)[C@@H](C)O [Example 104] (H-K([γGlu-γGlu-C20 diacid])CNTATCATQRLAEFLRHSSPNFGAIPSSTNVGHETY-NH2; disulfide 2-7; N-terminus assumed) | 31 | 28 | ≥ 200 | ≥ 200 | ≥ 200 | ≥ 200 | ≥ 200 | ≥ 200 | ≥ 200 | ≥ 200 | 29.1 | 29.1 | 29.1 | 29.1 | 29.1 | 29.1 | 29.1 | 8.50 | 158.8 | 158.8 | Ratio rCT/rAmylin binding [3, 21]: 158.8; pIC50 (rat calcitonin receptor): 6.30
2 | CC[C@H](C)[C@H](NC(=O)[C@H](C)NC(=O)CNC(=O)[C@H](Cc1ccccc1)NC(=O)[C@H](CC(N)=O)NC(=O)[C@@H]1CCCN1C(=O)[C@H](CO)NC(=O)[C@H](CO)NC(=O)[C@H](Cc1c[nH]cn1)NC(=O)[C@H](CCCNC(=N)N)NC(=O)[C@H](CC(C)C)NC(=O)[C@H](Cc1ccccc1)NC(=O)[C@H](CCCNC(=N)N)NC(=O)[C@H](C)NC(=O)[C@H](CC(C)C)NC(=O)[C@H](CCCNC(=N)N)NC(=O)[C@H](CCC(N)=O)NC(=O)[C@@H](NC(=O)[C@H](C)NC(=O)[C@@H]1CSSC[C@H](NC(=O)[C@@H](N)CCCCNC(=O)COCCOCCNC(=O)CC[C@H](NC(=O)CCCCCCCCCCCCCCCCCCC(=O)O)C(=O)O)C(=O)N[C@@H](CC(N)=O)C(=O)N[C@@H]([C@@H](C)O)C(=O)N[C@@H](C)C(=O)N[C@@H]([C@@H](C)O)C(=O)N1)[C@@H](C)O)C(=O)N1CCC[C@H]1C(=O)N[C@@H](CO)C(=O)N[C@@H](CO)C(=O)N[C@H](C(=O)N1CCC[C@H]1C(=O)N[C@H](C(=O)NCC(=O)N[C@@H](CO)C(=O)N[C@@H](CC(N)=O)C(=O)N[C@H](C(=O)N[C@@H](Cc1ccc(O)cc1)C(N)=O)[C@@H](C)O)C(C)C)[C@@H](C)O [Example 64] (H-K([AEEA-γGlu-C20 diacid])CNTATCATQRLARFLRHSSPNFGAIPSSTPVGSNTY-NH2; disulfide 2-7; N-terminus assumed) | 4 | 3 | ≥ 200 | ≥ 200 | ≥ 200 | ≥ 200 | ≥ 200 | ≥ 200 | ≥ 200 | ≥ 200 | 126.1 | 126.1 | 126.1 | 126.1 | 126.1 | 126.1 | 126.1 | 8.70 | 64.7 | 64.7 | pIC50 ([2]; Table 4, read-out: hAmylin-R bind IC50): 9.35; Ratio rCT/rAmylin binding [3, 21]: 64.7; pIC50 (rat calcitonin receptor): 6.89
3 | CC[C@H](C)[C@H](NC(=O)[C@H](C)NC(=O)CNC(=O)[C@H](Cc1ccccc1)NC(=O)[C@H](CC(N)=O)NC(=O)[C@@H]1CCCN1C(=O)[C@H](CO)NC(=O)[C@H](CO)NC(=O)[C@H](Cc1c[nH]cn1)NC(=O)[C@H](CCCNC(=N)N)NC(=O)[C@H](CC(C)C)NC(=O)[C@H](Cc1ccccc1)NC(=O)[C@H](CC(N)=O)NC(=O)[C@H](C)NC(=O)[C@H](CC(C)C)NC(=O)[C@H](CCCNC(=N)N)NC(=O)[C@H](CCC(N)=O)NC(=O)[C@@H](NC(=O)[C@H](C)NC(=O)[C@@H]1CSSC[C@H](NC(=O)[C@H](CCCCN)NC(=O)COCCOCCNC(=O)COCCOCCNC(=O)CC[C@H](NC(=O)CCCCCCCCCCCCCCCCCCC(=O)O)C(=O)O)C(=O)N[C@@H](CC(N)=O)C(=O)N[C@@H]([C@@H](C)O)C(=O)N[C@@H](C)C(=O)N[C@@H]([C@@H](C)O)C(=O)N1)[C@@H](C)O)C(=O)N1CCC[C@H]1C(=O)N[C@@H](CO)C(=O)N[C@@H](CO)C(=O)N[C@H](C(=O)N[C@@H](CC(N)=O)C(=O)N[C@H](C(=O)NCC(=O)N[C@@H](CO)C(=O)N[C@@H](CC(N)=O)C(=O)N[C@H](C(=O)N[C@@H](Cc1ccc(O)cc1)C(N)=O)[C@@H](C)O)C(C)C)[C@@H](C)O [Example 24] | 22 | 1 | ≥ 200 | ≥ 200 | ≥ 200 | ≥ 200 | ≥ 200 | ≥ 200 | ≥ 200 | ≥ 200 | 90.0 | 90.0 | 90.0 | 90.0 | 90.0 | 90.0 | 90.0 | 8.52 | 116.3 | 116.3 | Ratio rCT/rAmylin binding [3, 21]: 116.3; pIC50 (rat calcitonin receptor): 6.46
